Source: US11304949B2, “Treatment of hidradenitis suppurativa using JAK inhibitors” (Incyte Corporation, priority 2018, dated 2022)

Columns and labels:
[1] = biological target: human JAK1 (a.a. 837-1142) (Homo sapiens, UniProt P23458); experiment: In vitro JAK kinase assay (HTRF), JAK1; assay type: biochemical; conditions: 1 mM ATP
[2] = test system: human JAK1 (a.a. 837-1142); experiment: In vitro JAK kinase assay (HTRF), JAK1; assay type: biochemical; conditions: IC50 ratio at 1 mM ATP
[3] = test system: Transformed human keratinocyte (HaCaT) cells stimulated with TNFα and IFNγ; experiment: JAK inhibitors in TNFα/IFNγ stimulated keratinocytes, gene expression (QuantiGene Plex); conditions: 24 hours, normalized to HPRT1, mean ± standard error
[4] = test system: Transformed human keratinocyte (HaCaT) cells stimulated with TNFα and IFNγ; experiment: JAK inhibitors in TNFα/IFNγ stimulated keratinocytes, inflammatory mediators in media (ProCarta Multiplex Immunoassay); conditions: mean ± 1 standard error
[5] = TNFα (25 ng/mL) and IFNγ (25 ng/mL), drug 25 nM
[6] = TNFα (25 ng/mL) and IFNγ (25 ng/mL), drug 50 nM
[7] = TNFα (25 ng/mL) and IFNγ (25 ng/mL), drug 100 nM
[8] = TNFα (25 ng/mL) and IFNγ (25 ng/mL), drug 200 nM
[9] = TNFα (25 ng/mL) and IFNγ (25 ng/mL) stimulation, drug 25 nM
[10] = TNFα (25 ng/mL) and IFNγ (25 ng/mL) stimulation, drug 50 nM
[11] = TNFα (25 ng/mL) and IFNγ (25 ng/mL) stimulation, drug 100 nM
[12] = TNFα (25 ng/mL) and IFNγ (25 ng/mL) stimulation, drug 200 nM

## N#CCC1(n2cc(-c3ncnc4[nH]ccc34)cn2)CN(C2CCN(C(=O)c3ccnc(C(F)(F)F)c3F)CC2)C1 [Compound 1, {1-{1-[3-Fluoro-2-(trifluoromethyl)isonicotinoyl]piperidin-4-yl}-3-[4-(7H-pyrrolo[2,3-d]pyrimidin-4-yl)-1H-pyrazol-1-yl]azetidin-3-yl}acetonitrile]
[1]
  IC50: < 10 nM
[2]
  JAK2/JAK1: >10
[3]; [5]
  IL-1α MFI: 1288.02 ± 20
  IL-6 MFI: 130.24 ± 3.84
  JAK1 MFI: 216.23 ± 6.41
  JAK2 MFI: 109.39 ± 2.8
  JAK3 MFI: 0.84 ± 0.12
  STAT1 MFI: 2868.69 ± 202.69
  STAT3 MFI: 1466.73 ± 66.75
  STAT4 MFI: 6.00 ± 0.46
  STAT5A MFI: 23.69 ± 1.63
  STAT6 MFI: 1004.82 ± 23.76
  TYK2 MFI: 292.92 ± 7.99
[3]; [6]
  IL-1α MFI: 1258.76 ± 23.63
  IL-6 MFI: 122.69 ± 4.36
  JAK1 MFI: 210.42 ± 10.89
  JAK2 MFI: 101 ± 2.26
  JAK3 MFI: 0.83 ± 0.15
  STAT1 MFI: 2862.58 ± 163.98
  STAT3 MFI: 1437.28 ± 60.69
  STAT4 MFI: 6.22 ± 0.42
  STAT5A MFI: 22.32 ± 2.16
  STAT6 MFI: 990.05 ± 21.06
  TYK2 MFI: 287.31 ± 11.08
[3]; [7]
  IL-1α MFI: 1162.35 ± 23.34
  IL-6 MFI: 111.07 ± 4.74
  JAK1 MFI: 205.03 ± 11.49
  JAK2 MFI: 94.5 ± 2.65
  JAK3 MFI: 0.92 ± 0.13
  STAT1 MFI: 2790.32 ± 176.4
  STAT3 MFI: 1373.34 ± 55.51
  STAT4 MFI: 6.21 ± 0.48
  STAT5A MFI: 20.87 ± 2.1
  STAT6 MFI: 987.64 ± 15.75
  TYK2 MFI: 284.15 ± 9.62
[3]; [8]
  IL-1α MFI: 1126.94 ± 26.22
  IL-6 MFI: 93.03 ± 3.25
  JAK1 MFI: 195.97 ± 10.45
  JAK2 MFI: 89.16 ± 3.43
  JAK3 MFI: 0.79 ± 0.15
  STAT1 MFI: 2857.2 ± 174.57
  STAT3 MFI: 1400.77 ± 58.44
  STAT4 MFI: 6.27 ± 0.56
  STAT5A MFI: 19.2 ± 1.94
  STAT6 MFI: 985.17 ± 29.31
  TYK2 MFI: 277.52 ± 8.67
[3]; no stimulation, drug 200 nM
  IL-1α MFI: 85.16 ± 6.50
  IL-6 MFI: 4.97 ± 0.36
  JAK1 MFI: 171.53 ± 9.49
  JAK2 MFI: 25.21 ± 1.12
  JAK3 MFI: 0.63 ± 0.10
  STAT1 MFI: 535.07 ± 22.13
  STAT3 MFI: 732.19 ± 23.03
  STAT4 MFI: 4.01 ± 0.45
  STAT5A MFI: 1.44 ± 0.41
  STAT6 MFI: 740.11 ± 34.98
  TYK2 MFI: 217.28 ± 10.09
[4]; [9]
  IL-1α concentration in media: 7.34 ± 0.31 pg/mL
  IL-6 concentration in media: 749.64 ± 32.94 pg/mL
  IP-10/CXCL10 concentration in media: 4068.98 ± 507.12 pg/mL
  MIP1α concentration in media: 103.81 ± 3.29 pg/mL
  RANTES concentration in media: 203.77 ± 12.55 pg/mL
[4]; [10]
  IL-1α concentration in media: 7.06 ± 0.37 pg/mL
  IL-6 concentration in media: 674.21 ± 27.15 pg/mL
  IP-10/CXCL10 concentration in media: 3872.74 ± 295.01 pg/mL
  MIP1α concentration in media: 100.64 ± 4.66 pg/mL
  RANTES concentration in media: 198.35 ± 15.1 pg/mL
[4]; [11]
  IL-1α concentration in media: 7 ± 0.41 pg/mL
  IL-6 concentration in media: 643.8 ± 27.14 pg/mL
  IP-10/CXCL10 concentration in media: 4050.7 ± 471.31 pg/mL
  MIP1α concentration in media: 91.52 ± 5.05 pg/mL
  RANTES concentration in media: 194.21 ± 12.67 pg/mL
[4]; [12]
  IL-1α concentration in media: 6.16 ± 0.35 pg/mL
  IL-6 concentration in media: 568.73 ± 24.74 pg/mL
  IP-10/CXCL10 concentration in media: 4071.78 ± 411.22 pg/mL
  MIP1α concentration in media: 83.1 ± 2.77 pg/mL
  RANTES concentration in media: 183.18 ± 13.92 pg/mL
[4]; no stimulation, drug 200 nM
  IL-1α concentration in media: 0.29 ± 0.03 pg/mL
  IL-6 concentration in media: 28.49 ± 2.89 pg/mL
  IP-10/CXCL10 concentration in media: 19.83 ± 0.40 pg/mL
  MIP1α concentration in media: 2.75 ± 0.26 pg/mL
  RANTES concentration in media: 8.42 ± 0.51 pg/mL
